Series [1] is described as follows: in vivo. The note with it: Sprague-Dawley, rat, sc, 0.4 mg/kg.
Procedure: Sprague-Dawley rats (approximately weighing 120 grams each) were catheterized surgically with jugular and duodenal catheters. Each group of rats, 3-5 animals per group, were given 0.4-2.4 mg/kg of LHRH either as free in solution or incorporated in micelles. As further control, several groups of animals were given a solution of free LHRH subcutaneously at a dose of 0.4 mg/kg of body weight. Blood samples were collected at 0, 20, 40, 60, 90, 120, and 240 minutes following administration of LHRH or controls. The time 0 blood collection was obtained approximately 15 minutes before administration of LHRH formulations. Plasma samples were analyzed by a competitive ELISA assay as follows. Plastic 96 well plates were coated with anti-rabbit immunoglobulins followed by addition of rabbit anti-LHRH and biotinylated-LHRH with sample dilutions. Binding of biotinylated LHRH was assayed by development with BRP-avidin and color development with TMB (tetra-methyl-benzidine). Pharmacokinetic parameters were calculated from the data using WinNonLin software (Pharsight).
Series [2] in a line: in vivo. The settings on record: Sprague-Dawley, rat.
Procedure: Sprague-Dawley rats (approximately weighing 120 grams each) were catheterized surgically with jugular and duodenal catheters. Each group of rats, 4-5 animals per group, were given 0.4-3.6 mg/kg of leuprolide either as free in solution or incorporated in micelles. As further control, several groups of animals were given a solution of free leuprolide subcutaneously. Blood samples were collected at 0, 20, 40, 60, 90, 120, and 240 minutes following administration of leuprolide or controls. The time 0 blood collection was obtained approximately 15 minutes before administration of leuprolide formulations. The amount of leuprolide released into rat serum or leuprolide in formulation was determined by using competitive enzyme-linked immunosorbent assay (ELISA) (Peninsula Laboratories, Inc). The assay system utilizes goat anti-rabbit IgG for solid phase (microwells) immobilization. The test serum or formulation sample was allowed to react simultaneously with the coated antibody, rabbit anti-leuprolide and biotinylated leuprolide. The biotinylated leuprolide competes for the antibody binding sites with standard or the unknown sample leuprolide. After a two-hour (or overnight) incubation at room temperature, unbound biotinylated peptide was removed by washing, and streptavidin-conjugated horseradish peroxidase (SA-HRP) was added and allowed to bind the immobilized rabbit anti-leuprolide/biotinylated leuprolide complex. After washing away excess SA-HRP, 3,3′,5,5′-Tetramethylbenzidine (TMB) was added and incubated for 15 minutes, resulting in the development of a blue color. The addition of Stop Solution stops the reaction and converts the color to yellow. The intensity of the yellow color depends on the quantity of biotinylated leuprolide bound to the immobilized antibody: When more sample leuprolide competes for the limited antibody, less biotinylated leuprolide/SA-HRP can be immobilized, and less color is produced by the substrate.
Series [3] in a line: in vivo. The settings on record: both, beagle, dog, sc, 0.4 mg/kg.
Procedure: Beagle dogs (3 female and 3 male weighing 8-10 kg each) were catheterized surgically with duodenal catheters. For each treatment, the dogs were given 0.4-2.4 mg/kg of leuprolide either in solution or incorporated in micelles. The treatments were administered via the duodenal catheter. For the positive control, the dogs were given a solution of free leuprolide by subcutaneous injection. Blood samples were collected from cephalic catheters or the jugular vein at 0, 15, 30, 45, 60, 90, 120, 240, 360, 480, and 1440 minutes following administration of leuprolide or controls. […] The time 0 blood collection was obtained approximately 10 minutes before administration of leuprolide formulations. The amount of leuprolide released into dog serum was determined by using a competitive enzyme-linked immunosorbent assay (ELISA) from Peninsula Laboratories, Inc. which utilizes goat anti-rabbit IgG for solid phase (microwell) immobilization. The test serum was allowed to react simultaneously with the coated antibody, rabbit anti-leuprolide and biotinylated leuprolide. After two-hour incubation at room temperature, unbound biotinylated peptide was removed by washing, and streptavidin-conjugated horseradish peroxidase (SA-HRP) was added and allowed to bind the immobilized rabbit anti-leuprolide/biotinylated leuprolide complex. After washing away excess SA-HRP, 3,3′5,5′-Tetramethylbenzidine dihydrochloride (B) was added and incubated for 15 minutes, resulting in the development of a blue color. The addition of stop solution stops the reaction and converts the color to yellow. Leuprolide in the samples was quantified by non-linear regression analysis of the standard curve and sample optical density values. Pharmacokinetic parameters are calculated using a pharmacokinetic software with a noncompartmental model.
Series [4] is described as follows: Bioavailability of hGH following intraduodenal administration in rats (plasma hGH by ELISA). The note with it: 600 micrograms hGH, FIG. 1. It is filed as in vivo, Sprague-Dawley rats. The text has this:
Each group of rats, 3-5 animals per group, received 600 micrograms of human growth hormone in Acconon CC-12 reverse micelle formulation or control formulations consisting of aqueous growth hormone or Acconon CC-12 water reverse micelle. Blood samples were obtained from the jugular catheter at the indicated times after administration. Plasma samples were obtained from the collected blood specimens and analyzed for the presence of hGH by an enzyme-linked immunosorbent assay (ELISA) (Alexon-Trend, BioCheck). The assay system utilizes polyclonal sheep anti-hGH for solid phase (microwells) immobilization, and mouse monoclonal anti-hGH in the antibody-enzyme (horseradish peroxidase) conjugate solution. […] After a 45-minute incubation at room temperature, the sample well was washed to remove unbound enzyme labeled antibody. […] The intensity of the yellow color is directly proportional to the concentration of hGH in the sample.
On the technique in general: ELISA stands for enzyme-linked immunosorbent assay.

For `CC(C)C[C@H](NC(=O)CNC(=O)[C@H](Cc1ccc(O)cc1)NC(=O)[C@H](CO)NC(=O)[C@H](Cc1c[nH]c2ccccc12)NC(=O)[C@H](Cc1cnc[nH]1)NC(=O)[C@@H]1CCC(=O)N1)C(=O)N[C@@H](CCCNC(=N)N)C(=O)N1CCC[C@H]1C(=O)NCC(N)=O` [LHRH solution], in series [1], the AUC(0-inf) is 31.5 ng·h/mL, the Cmax amounted to 79 ± 51.2 ng/mL and the bioavailability was 100%.

For `CCNC(=O)[C@@H]1CCCN1C(=O)[C@H](CCCNC(=N)N)NC(=O)[C@H](CC(C)C)NC(=O)[C@@H](CC(C)C)NC(=O)[C@H](Cc1ccc(O)cc1)NC(=O)[C@H](CO)NC(=O)[C@H](Cc1c[nH]c2ccccc12)NC(=O)[C@H](Cc1c[nH]cn1)NC(=O)[C@@H]1CCC(=O)N1` [Leuprolide solution, p-Glu-His-Trp-Ser-Tyr-D-Leu-Leu-Arg-Pro-NHC2H5], the bioavailability in series [2] is approximately 0.2%; in series [2] (2.4 mg/kg), 0.23 ± 0.12%; in series [2] (sc, 0.4 mg/kg), 100%; in series [3], 100%. Further, the AUC(0-inf) in series [2] (2.4 mg/kg) was 5.43 ng·h/mL; in series [2] (sc, 0.4 mg/kg) it was 397 ng·h/mL; in series [3], 905 ng·h/mL. In addition, the Cmax in series [2] (2.4 mg/kg) was determined as 6.3 ± 5.3 ng/mL; in series [2] (sc, 0.4 mg/kg), 453 ± 94 ng/mL; in series [3], 412 ± 163 ng/mL.

On to “aqueous growth hormone: purified human growth hormone dissolved in water, control formulation”, for which, in series [4], the “absorption of hGH” value is listed as “little to no absorption”.

The term AUC(0-inf) denotes total exposure, with the tail of the curve extrapolated. Lower therefore signals less exposure. Usually Cmax stands for the peak of the concentration-time curve. For orientation: bioavailability means the share of a dose that reaches the circulation, judged against a reference dose that is usually intravenous. Higher therefore signals good availability.

Values taken from patent publication US8535650B2, “Stabilized reverse micelle compositions and uses thereof” (Soligenix, Inc., priority 2001, dated 2013).
